Data: US7943632B2, “High potency dopaminergic treatment of neurological impairment associated with brain injury” (NeuroHealing Pharmaceuticals, Inc., priority 2003, dated 2011)

What was measured:
[1] = system: patients of post-traumatic brain injury vegetative state (VS) and minimally conscious state (MCS); assay: Apomorphine open label study, safety observations; conditions: Patient 02; approximately 4 months from the accident, dosing interrupted Day 47
[2] = system: D2-like dopamine receptors; conditions: cited from earlier work
[3] = cited from earlier work
[4] = system: patients of post-traumatic brain injury vegetative state (VS) and minimally conscious state (MCS); assay: Apomorphine open label study, Extended Glasgow Outcome Scale (GOS-E); format: in vivo, human
[5] = system: patients of post-traumatic brain injury vegetative state (VS) and minimally conscious state (MCS); assay: Apomorphine open label study, Disability Rating Scale; format: in vivo, human
[6] = system: patients of post-traumatic brain injury vegetative state (VS) and minimally conscious state (MCS); conditions: in vivo
[7] = system: patients of post-traumatic brain injury vegetative state (VS) and minimally conscious state (MCS); assay: Apomorphine open label study, efficacy observations; format: in vivo, human
Method: The patients received the maximum tolerated dose, 12 to 16 hours per day, for up to 84 days (or shorter or longer as indicated). If the patient developed an adverse event, the dose was reduced or eliminated, according to the opinion of the attending physician. To prevent side effects from dopaminergic stimulation (such as nausea), domperidone was administered starting 24-72 hours (h) prior to initiation of the drug therapy.

[8] = system: patients of post-traumatic brain injury vegetative state (VS) and minimally conscious state (MCS); assay: Apomorphine open label study, Coma/Near Coma (CNC) Scale; format: in vivo, human
[9] = cited from earlier work; remark: listed apart in the source
[10] = system: Patient 01, traumatic brain injury (TBI); assay: Prior drug treatment in clinical history of Patient 01; format: in vivo, human; conditions: 15 mg/day for 12 days, before apomorphine study
[11] = Patient 01, Day 180, study termination
[12] = Patient 01, Day 7 of s.c. apomorphine
[13] = Patient 02, Day 7 of s.c. apomorphine
[14] = Patient 03, Day 7 of s.c. apomorphine
[15] = Patient 03, Day 180, treatment discontinued Day 84

CN1CCc2cccc3c2[C@H]1Cc1ccc(O)c(O)c1-3 [apomorphine, (R)-5,6,6a,7-tetrahydro-6-methyl-4H-dibenzo[de,g]quinolin-10,11-diol]
Patient outcome [1]: died | Affinity for D2-like dopamine receptors [2]: particularly high affinity | Absorption and clearance ([3]; from subcutaneous tissues): rapidly and completely absorbed from subcutaneous tissues and is rapidly cleared | Absorption ([3]; parenterally administered): rapidly and completely absorbed | GOS-E ([4]; Patient 01, Day 7): 3 | GOS-E ([4]; Patient 01, Day 14): 3 | GOS-E ([4]; Patient 01, Day 84): 3 | GOS-E [4, 11]: 3 | GOS-E ([4]; Patient 03, Day 84): 3 | GOS-E ([4]; Patient 03, baseline): 2 | DRS ([5]; Patient 01, Day 0 (baseline)): 21 | DRS [5, 12]: 13 | DRS ([5]; Patient 01, Day 14): 13 | DRS ([5]; Patient 01, Day 21): 12.5 | DRS ([5]; Patient 01, Day 28): 12.5 | DRS ([5]; Patient 01, Day 42): 12 | DRS ([5]; Patient 01, Day 56): 10.5 | DRS ([5]; Patient 01, Day 70): 10.5 | DRS ([5]; Patient 01, Day 84): 10 | DRS [5, 11]: 15 | DRS ([5]; Patient 02, Day 0 (baseline)): 26 | DRS [5, 13]: 24 | DRS ([5]; Patient 02, Day 14): 19 | DRS ([5]; Patient 02, Day 21): 22 | DRS ([5]; Patient 02, Day 28): 22 | DRS ([5]; Patient 03, Day 0 (baseline)): 23 | DRS [5, 14]: 22 | DRS ([5]; Patient 03, Day 14): 22 | DRS ([5]; Patient 03, Day 21): 22 | DRS ([5]; Patient 03, Day 28): 22 | DRS ([5]; Patient 03, Day 42): 22 | DRS ([5]; Patient 03, Day 56): 22 | DRS ([5]; Patient 03, Day 70): 22 | DRS ([5]; Patient 03, Day 84): 21 | DRS [5, 15]: 12 | Adverse event [6]: seizure | Adverse events [6]: agitation and fever | Dyskinesias and hallucinations after dose reduction [6]: disappeared | ECG and clinical labs [6]: no abnormal values | Tolerability of dose escalation ([6]; sc): well tolerated | Efficacy observation ([7]; Patient 01, Day 1, hours after initial dosing, 2 mg/h): moved right thumb to command | Efficacy observation ([7]; Patient 01, Day 2, 4 mg/h): moved limbs on command and answered yes/no questions | Efficacy observation ([7]; Patient 01, Day 3, 6 mg/h): Spoke by phone with sibling and named four friends in their room | Efficacy observation ([7]; Patient 01, Day 4, 8 mg/h): named objects and associated them with their function | Efficacy observation ([7]; Patient 01, Day 5, 8 mg/h): oriented to physician's last name and name of the institution | Effect of pump remaining off for two hours ([7]; Patient 01, Day 18): decrease in their awareness status | Time to regain “on” status after reconnection of the pump ([7]; Patient 01, Day 18): ≤ 15 min | Effect of attempt to discontinue the treatment ([7]; Patient 01, Day 84): regressed to an “off” state | Day of trial on which patient started to follow simple commands ([7]; Patient 02): 9 | Efficacy observation ([7]; Patient 02, first two weeks of drug administration, maintained until the bleeding event): improvement in the patient's consciousness state | Efficacy observation ([7]; Patient 03, Day 2): started to vocalize words | Efficacy observation ([7]; Patient 03, Day 62): started to clearly respond to commands, recognize family members, respond to their name and respond to their age | Effect of first attempt to discontinue drug ([7]; Patient 03, Day 84): maintained their motor and cognitive improvements | Overall efficacy on altered consciousness state ([7]; Patients 01, 02 and 03 after traumatic brain injury): effective at improving the altered consciousness state | CNC ([8]; Patient 01, Day 0 (baseline)): 20 | CNC [8, 12]: 2 | CNC ([8]; Patient 01, Day 14): 0 | CNC ([8]; Patient 01, Day 21): 0 | CNC ([8]; Patient 01, Day 28): 0 | CNC ([8]; Patient 01, Day 42): 0 | CNC ([8]; Patient 01, Day 56): 0 | CNC ([8]; Patient 01, Day 70): 0 | CNC ([8]; Patient 01, Day 84): 0 | CNC [8, 11]: 0 | CNC ([8]; Patient 02, Day 0 (baseline)): 36 | CNC ([8]; Patient 02, Day 0 (baseline), listed as Apomorphine): 37 | CNC [8, 13]: 33 | CNC ([8]; Patient 02, Day 14): 24 | CNC ([8]; Patient 02, Day 21): 24 | CNC ([8]; Patient 02, Day 28): 24 | CNC ([8]; Patient 02, Day 42): 26 | CNC ([8]; Patient 03, Day 0 (baseline)): 33 | CNC [8, 14]: 22 | CNC ([8]; Patient 03, Day 14): 18 | CNC ([8]; Patient 03, Day 21): 12 | CNC ([8]; Patient 03, Day 28): 12 | CNC ([8]; Patient 03, Day 42): 16 | CNC ([8]; Patient 03, Day 56): 16 | CNC ([8]; Patient 03, Day 70): 12 | CNC ([8]; Patient 03, Day 84): 8 | CNC [8, 15]: 0 | Incidence of psychological effects ([9]; compared with other dopaminergic agents): lower incidence of psychological effects | Injection site reaction ([9]; subcutaneous administration at a concentration of 10 mg/ml): nodule formation (panniculitis) may occur

COC(=O)C(c1ccccc1)C1CCCCN1 (stereo not drawn) [methylphenidate]
Response to treatment [10]: no response to treatment
